Source: PubChem BioAssay AID330 (DTP/NCI, 2004)
Values joined by “and” are separate entries in the source; they are usually repeats but may differ in a detail not shown here. Equal values may be shown once. Inconclusive results and toxic doses are left out. The calls were made as follows: active = survival T/C of 150% or more; inactive = T/C below 125% in these data.

System: P388 leukemia ip, CD2F1 mice, survival T/C
Experiment: NCI In Vivo Anticancer Drug Screen. Data for tumor model P388 Leukemia (intraperitoneal) in CD2F1 (CDF1) mice
Conditions: endpoint: median survival time, higher = longer survival
How it was run: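 Mice carrying the transplanted tumor received test compound or vehicle. Survival was recorded in each group, and the value is the treated-group measurement divided by that of the vehicle-treated control group.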

[1] = dose: 50.0 mg/kg/injection, schedule: Q01DX005 (ip), vehicle: saline
[2] = dose: 100.0 mg/kg/injection, schedule: Q01DX005 (ip), vehicle: saline
[3] = dose: 200.0 mg/kg/injection, schedule: Q01DX005 (ip), vehicle: saline
[4] = dose: 50.0 mg/kg/injection, schedule: Q01DX005 (ip), vehicle: Klucel (hydroxypropylcellulose) (HPC)
[5] = dose: 100.0 mg/kg/injection, schedule: Q01DX005 (ip), vehicle: Klucel (hydroxypropylcellulose) (HPC)
[6] = dose: 200.0 mg/kg/injection, schedule: Q01DX005 (ip), vehicle: Klucel (hydroxypropylcellulose) (HPC)
[7] = dose: 60.0 mg/kg/injection, schedule: Q01DX005 (ip), vehicle: saline with Tween-80
[8] = dose: 120.0 mg/kg/injection, schedule: Q01DX005 (ip), vehicle: saline with Tween-80
[9] = dose: 240.0 mg/kg/injection, schedule: Q01DX005 (ip), vehicle: saline with Tween-80
[10] = dose: 12.5 mg/kg/injection, schedule: Q01DX009 (ip), vehicle: saline
[11] = dose: 12.5 mg/kg/injection, schedule: Q01DX009 (ip), vehicle: saline with Tween-80
[12] = dose: 50.0 mg/kg/injection, schedule: Q01DX009 (ip), vehicle: saline with Tween-80
[13] = dose: 50.0 mg/kg/injection, schedule: Q01DX009 (ip), vehicle: saline
[14] = dose: 25.0 mg/kg/injection, schedule: Q01DX005 (ip), vehicle: Klucel (hydroxypropylcellulose) (HPC)

Measured: T/C

OCC1SC(O)C(O)C(O)C1O (stereo unspecified)
inactive: dose: 120.0 mg/kg/injection, schedule: Q##DX005 (ip), vehicle: saline 97 % of control | dose: 240.0 mg/kg/injection, schedule: Q##DX005 (ip), vehicle: saline 92 % of control | dose: 600.0 mg/kg/injection, schedule: Q01DX001 (ip), vehicle: saline 102 % of control and 104 % of control | dose: 1200.0 mg/kg/injection, schedule: Q01DX001 (ip), vehicle: saline 100 % of control and 104 % of control

CC(C)(CO)N(CCO)CCO
inactive: [1] 106 % of control | [2] 106 % of control | [3] 106 % of control

COc1ccc2c(C)cc(=O)oc2c1OCC(O)CN1CCOCC1 (stereo unspecified)
inactive: dose: 60.0 mg/kg/injection, schedule: Q01DX005 (ip), vehicle: saline 110 % of control | dose: 120.0 mg/kg/injection, schedule: Q01DX005 (ip), vehicle: saline 104 % of control | dose: 240.0 mg/kg/injection, schedule: Q01DX005 (ip), vehicle: saline 103 % of control

Cn1cccc1C1NC(=O)C(c2cccn2C)NC1=O (stereo unspecified)
inactive: [4] 95 % of control | [5] 96 % of control | [6] 92 % of control

Cc1ccc(C(=O)Nc2c(C)cccc2C)cc1
inactive: [7] 98 % of control | [8] 92 % of control

COc1ccc(Oc2nc(=O)n3ccsc3n2)cc1
inactive: dose: 100.0 mg/kg/injection, schedule: Q04DX003 (ip), vehicle: saline with Tween-80 108 % of control | dose: 200.0 mg/kg/injection, schedule: Q04DX003 (ip), vehicle: saline with Tween-80 86 % of control | dose: 400.0 mg/kg/injection, schedule: Q04DX003 (ip), vehicle: saline with Tween-80 94 % of control

CSc1ccnc2ccccc12
inactive: dose: 12.5 mg/kg/injection, schedule: Q01DX009 (ip), vehicle: other 103 % of control | dose: 25.0 mg/kg/injection, schedule: Q01DX009 (ip), vehicle: other 118 % of control | dose: 50.0 mg/kg/injection, schedule: Q01DX009 (ip), vehicle: other 114 % of control

Nc1c(Br)cc(Br)c2c1[nH]c(=O)c1ccccc12
inactive: [7] 96 % of control | [8] 90 % of control | [9] 107 % of control

N#Cc1c2ccccc2c(=O)n2ccccc12
inactive: dose: 100.0 mg/kg/injection, schedule: Q04DX002 (ip), vehicle: Klucel (hydroxypropylcellulose) (HPC) 94 % of control | dose: 200.0 mg/kg/injection, schedule: Q04DX002 (ip), vehicle: Klucel (hydroxypropylcellulose) (HPC) 88 % of control | dose: 400.0 mg/kg/injection, schedule: Q04DX002 (ip), vehicle: Klucel (hydroxypropylcellulose) (HPC) 94 % of control

Cc1cnc(C)c(NN=O)n1
inactive: dose: 3.12 mg/kg/injection, schedule: Q01DX009 (ip), vehicle: saline 101 % of control and 108 % of control | dose: 6.25 mg/kg/injection, schedule: Q01DX009 (ip), vehicle: saline 116 % of control and 122 % of control | [10] 117 % of control

CC1=C2C(=C[C@@](C)(CO)[C@@H]2O)C(=O)[C@](C)(O)C12CC2
inactive: dose: 0.05 mg/kg/injection, schedule: Q01DX010 (ip), vehicle: saline 109 % of control | dose: 0.1 mg/kg/injection, schedule: Q01DX010 (ip), vehicle: saline 118 % of control | dose: 0.8 mg/kg/injection, schedule: Q01DX010 (ip), vehicle: saline 95 % of control

CC12CCC3c4ccc(OP(=O)(N5CC5)N5CC5)cc4CCC3C1CCC2O (stereo unspecified)
inactive: [11] 96 % of control and 97 % of control | dose: 25.0 mg/kg/injection, schedule: Q01DX009 (ip), vehicle: saline with Tween-80 110 % of control and 96 % of control | [12] 100 % of control and 92 % of control | dose: 100.0 mg/kg/injection, schedule: Q01DX009 (ip), vehicle: saline with Tween-80 115 % of control

Cc1csc(N2C(=O)c3cccc4cccc(c34)C2=O)n1
inactive: [7] 110 % of control | [8] 96 % of control | [9] 96 % of control

CCCOC(CN(C)C)C(Cl)(Cl)Cl (stereo unspecified)
inactive: dose: 50.0 mg/kg/injection, schedule: Q01DX009 (ip), vehicle: Klucel (hydroxypropylcellulose) (HPC) 101 % of control | dose: 100.0 mg/kg/injection, schedule: Q01DX009 (ip), vehicle: Klucel (hydroxypropylcellulose) (HPC) 104 % of control | dose: 200.0 mg/kg/injection, schedule: Q01DX009 (ip), vehicle: Klucel (hydroxypropylcellulose) (HPC) 100 % of control

CC1(C)CC2=NO[Se]3=C2C(=NO3)C1
inactive: dose: 1.56 mg/kg/injection, schedule: Q01DX009 (ip), vehicle: saline with Tween-80 104 % of control | dose: 3.12 mg/kg/injection, schedule: Q01DX009 (ip), vehicle: saline with Tween-80 102 % of control | dose: 6.25 mg/kg/injection, schedule: Q01DX009 (ip), vehicle: saline with Tween-80 104 % of control and 111 % of control | [11] 117 % of control

CC(N)C(=O)NC(C)C(=O)NC(C)C(=O)O (stereo unspecified)
inactive: [4] 104 % of control | [5] 106 % of control | [6] 101 % of control

COc1ccc(/C=N/NC(=O)C(=O)N/N=C/c2ccc(OC)c(S(=O)(=O)O)c2)cc1S(=O)(=O)O
inactive: [13] 102 % of control | dose: 100.0 mg/kg/injection, schedule: Q01DX009 (ip), vehicle: saline 104 % of control | dose: 200.0 mg/kg/injection, schedule: Q01DX009 (ip), vehicle: saline 109 % of control

CCN(CC)CCCC(C)Nc1cc(C)c2nc(C)cc(C)c2c1C (stereo unspecified)
inactive: [10] 98 % of control | dose: 25.0 mg/kg/injection, schedule: Q01DX009 (ip), vehicle: saline 97 % of control | [12] 100 % of control | [13] 90 % of control

CC1CCC2(C(=O)O)CCC3(C)C(=CCC4C5(C)CC(O)C(O)C(C)(CO)C5C(O)CC43C)C2C1C (stereo unspecified)
inactive: [14] 90 % of control | [4] 92 % of control | [5] 95 % of control

CCC(CC)C(=O)NN(C)C
inactive: [1] 101 % of control | [2] 100 % of control

CC1=CC(=O)C(O)=C/C1=C\C=C\c1ccccc1
inactive: dose: 2.5 mg/kg/injection, schedule: Q01DX009 (ip), vehicle: saline with Tween-80 110 % of control | dose: 5.0 mg/kg/injection, schedule: Q01DX009 (ip), vehicle: saline with Tween-80 104 % of control | dose: 10.0 mg/kg/injection, schedule: Q01DX009 (ip), vehicle: saline with Tween-80 103 % of control

OC1CC2CCc3[nH]c4ccccc4c3CCN(C1)C2 (stereo unspecified)
inactive: dose: 5.5 mg/kg/injection, schedule: Q01DX005 (ip), vehicle: Klucel (hydroxypropylcellulose) (HPC) 91 % of control | dose: 11.0 mg/kg/injection, schedule: Q01DX005 (ip), vehicle: Klucel (hydroxypropylcellulose) (HPC) 96 % of control | dose: 22.0 mg/kg/injection, schedule: Q01DX005 (ip), vehicle: Klucel (hydroxypropylcellulose) (HPC) 100 % of control | dose: 44.0 mg/kg/injection, schedule: Q01DX005 (ip), vehicle: Klucel (hydroxypropylcellulose) (HPC) 100 % of control

COc1cccc2c1C(=O)c1c(O)c3c(c(O)c1C2=O)CC(O)(C(C)O)CC3 (stereo unspecified)
inactive: dose: 1.0 mg/kg/injection, schedule: Q01DX009 (ip), vehicle: Klucel (hydroxypropylcellulose) (HPC) 102 % of control | dose: 2.0 mg/kg/injection, schedule: Q01DX009 (ip), vehicle: Klucel (hydroxypropylcellulose) (HPC) 99 % of control | dose: 4.0 mg/kg/injection, schedule: Q01DX009 (ip), vehicle: Klucel (hydroxypropylcellulose) (HPC) 95 % of control | dose: 8.0 mg/kg/injection, schedule: Q01DX009 (ip), vehicle: Klucel (hydroxypropylcellulose) (HPC) 92 % of control

O=C(NC1C=Nc2ccc(Cl)cc2NC1=O)c1ccc(Cl)cc1 (stereo unspecified)
inactive: dose: 60.0 mg/kg/injection, schedule: Q01DX005 (ip), vehicle: Klucel (hydroxypropylcellulose) (HPC) 91 % of control | dose: 120.0 mg/kg/injection, schedule: Q01DX005 (ip), vehicle: Klucel (hydroxypropylcellulose) (HPC) 91 % of control | dose: 240.0 mg/kg/injection, schedule: Q01DX005 (ip), vehicle: Klucel (hydroxypropylcellulose) (HPC) 93 % of control

Ic1ncn(CCN2CCOCC2)c1I
inactive: [14] 88 % of control | [4] 97 % of control | [5] 94 % of control | [6] 97 % of control

O=C(CC(C(=O)O)N1CCNCC1)c1ccc(Cl)cc1 (stereo unspecified)
inactive: [1] 100 % of control | [2] 107 % of control | [3] 101 % of control

CC(=O)CC(=O)N/N=C(N)/C(C#N)=N/N(C)c1ccccc1
inactive: dose: 100.0 mg/kg/injection, schedule: Q04DX002 (ip), vehicle: saline with Tween-80 97 % of control | dose: 200.0 mg/kg/injection, schedule: Q04DX002 (ip), vehicle: saline with Tween-80 94 % of control | dose: 400.0 mg/kg/injection, schedule: Q04DX002 (ip), vehicle: saline with Tween-80 96 % of control
